Values joined by “and” are separate entries in the source; they are usually repeats but may differ in a detail not shown here. Equal values may be shown once. Read-outs that look alike come from different tables or passages of the source.
Legend:
[1] = system: 60 cancer cell lines (NCI 60 cancer cell line series); experiment: NCI-DTP in vitro cancer screen, sulforhodamine B (SRB) growth inhibition, 48 hour exposure; type: cell-based, human
Outline: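 Values come from the NCI-DTP screen database: -log GI50, the concentration giving 50% growth inhibition, derived from SRB cell-mass dose-response curves. Each line seeded at its own density, treated day 1 at five ten-fold-spaced doses in duplicate wells, stained after 48 h.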

[2] = system: 60 cancer cell lines (NCI 60 cancer cell line series); conditions: cited from earlier work

SMILES: COc1cccc2c1C(=O)c1c(O)c3c(c(O)c1C2=O)C[C@@](O)(C(C)=O)C[C@@H]3O[C@H]1C[C@H](N)[C@H](O)[C@H](C)O1 [Daunorubicin]
- classification of cell line as Low(1), Medium(2) or High(3) sensitivity to compound ([1]; Breast BT-549 (CL5013)): 1
- classification of cell line as Low(1), Medium(2) or High(3) sensitivity to compound ([1]; Breast MCF7(I) (CL5001)): 3
- classification of cell line as Low(1), Medium(2) or High(3) sensitivity to compound ([1]; Breast MCF7/ADRr (CL5002)): 1
- classification of cell line as Low(1), Medium(2) or High(3) sensitivity to compound ([1]; Breast MDA-MB-231 CL5005): 1
- classification of cell line as Low(1), Medium(2) or High(3) sensitivity to compound ([1]; Breast MDA-MB-435 (CL5011)): 1
- classification of cell line as Low(1), Medium(2) or High(3) sensitivity to compound ([1]; Breast MDA-N CL5012): 1
- classification of cell line as Low(1), Medium(2) or High(3) sensitivity to compound ([1]; Breast T-47D (CL5014)): 2
- classification of cell line as Low(1), Medium(2) or High(3) sensitivity to compound ([1]; CNS SF-268 CL12014): 2
- classification of cell line as Low(1), Medium(2) or High(3) sensitivity to compound ([1]; CNS SF-295 CL12015): 2
- classification of cell line as Low(1), Medium(2) or High(3) sensitivity to compound ([1]; CNS SNB-19 (CL12002)): 2
- classification of cell line as Low(1), Medium(2) or High(3) sensitivity to compound ([1]; CNS SNB-75(I) CL12005): 2
- classification of cell line as Low(1), Medium(2) or High(3) sensitivity to compound ([1]; CNS U251(I) CL12009): 2
- classification of cell line as Low(1), Medium(2) or High(3) sensitivity to compound ([1]; Colon COLO-250 CL4010): 1
- classification of cell line as Low(1), Medium(2) or High(3) sensitivity to compound ([1]; Colon HCC-2998 (CL4002)): 1
- classification of cell line as Low(1), Medium(2) or High(3) sensitivity to compound ([1]; Colon HCT-15 CL4015): 1
- classification of cell line as Low(1), Medium(2) or High(3) sensitivity to compound ([1]; Colon HCT-116 (CL4003)): 2
- classification of cell line as Low(1), Medium(2) or High(3) sensitivity to compound ([1]; Colon HT29(I) CL4001): 2
- classification of cell line as Low(1), Medium(2) or High(3) sensitivity to compound ([1]; Colon SW-620 (CL4009)): 2
- classification of cell line as Low(1), Medium(2) or High(3) sensitivity to compound ([1]; Leukemia CCRF-CEM(I) (CL7003)): 3
- classification of cell line as Low(1), Medium(2) or High(3) sensitivity to compound ([1]; Leukemia HL-60(I) (CL7008)): 3
- classification of cell line as Low(1), Medium(2) or High(3) sensitivity to compound ([1]; Leukemia MOLT-4 (CL7006)): 3
- classification of cell line as Low(1), Medium(2) or High(3) sensitivity to compound ([1]; Leukemia SR CL7019): 3
- classification of cell line as Low(1), Medium(2) or High(3) sensitivity to compound ([1]; Melanoma M14 (CL10014)): 1
- classification of cell line as Low(1), Medium(2) or High(3) sensitivity to compound ([1]; Melanoma MALME-3M CL10002): 2
- classification of cell line as Low(1), Medium(2) or High(3) sensitivity to compound ([1]; Melanoma SK-MEL-5 (CL10007)): 2
- classification of cell line as Low(1), Medium(2) or High(3) sensitivity to compound ([1]; Melanoma SK-MEL-28 (CL10008)): 1
- classification of cell line as Low(1), Medium(2) or High(3) sensitivity to compound ([1]; Melanoma UACC-62 (CL10020)): 2
- classification of cell line as Low(1), Medium(2) or High(3) sensitivity to compound ([1]; Melanoma UACC-257 (CL10021)): 1
- classification of cell line as Low(1), Medium(2) or High(3) sensitivity to compound ([1]; NSCLC A549/ATCC (CL1004)): 2
- classification of cell line as Low(1), Medium(2) or High(3) sensitivity to compound ([1]; NSCLC EKVX (CL1008)): 1
- classification of cell line as Low(1), Medium(2) or High(3) sensitivity to compound ([1]; NSCLC HOP-62 (CL1026)): 2
- classification of cell line as Low(1), Medium(2) or High(3) sensitivity to compound ([1]; NSCLC HOP-92 (CL1029)): 2
- classification of cell line as Low(1), Medium(2) or High(3) sensitivity to compound ([1]; NSCLC NCI-H226 CL1013): 2
- sensitivity class NSCLC NCI-H23(I) CL1001 ([1]; cell line NSCLC NCI-H23(I), CL1001): 2
- sensitivity class NSCLC NCI-H332M CL1017 ([1]; cell line NSCLC NCI-H332M, CL1017): 1
- sensitivity class NSCLC NCI-H460 CL1021 ([1]; cell line NSCLC NCI-H460, CL1021): 3
- sensitivity class NSCLC NCI-H522 CL1003 ([1]; cell line NSCLC NCI-H522, CL1003): 2
- sensitivity class Ovarian IGROV1 CL6010 ([1]; cell line Ovarian IGROV1, CL6010): 2
- sensitivity class Ovarian OVCAR-3 CL6001 ([1]; cell line Ovarian OVCAR-3, CL6001): 1
- sensitivity class Ovarian OVCAR-4 CL6002 ([1]; cell line Ovarian OVCAR-4, CL6002): 1
- sensitivity class Ovarian OVCAR-5 CL6003 ([1]; cell line Ovarian OVCAR-5, CL6003): 1
- sensitivity class Ovarian OVCAR-8 CL6005 ([1]; cell line Ovarian OVCAR-8, CL6005): 2
- sensitivity class Prostate DU-145 CL11003 ([1]; cell line Prostate DU-145, CL11003): 2
- sensitivity class Prostate PC-3(I) CL11001 ([1]; cell line Prostate PC-3(I), CL11001): 2
- sensitivity class Renal 786-O CL9018 ([1]; cell line Renal 786-O, CL9018): 2
- sensitivity class Renal A498 CL9013 ([1]; cell line Renal A498, CL9013): 1
- sensitivity class Renal ACHN CL9023 ([1]; cell line Renal ACHN, CL9023): 2
- sensitivity class Renal CAKI-1 CL9015 ([1]; cell line Renal CAKI-1, CL9015): 2
- sensitivity class Renal RXF-393 CL9016 ([1]; cell line Renal RXF-393, CL9016): 1
- sensitivity class Renal SN12C CL9008 ([1]; cell line Renal SN12C, CL9008): 2
- sensitivity class Renal TK10 CL9024 ([1]; cell line Renal TK10, CL9024): 1
- sensitivity class Renal UO-31 CL9004 ([1]; cell line Renal UO-31, CL9004): 1
- -Log (GI50) ([2]; Breast BT-549 (CL5013)): 6.8 and 6.7
- -Log (GI50) ([2]; Breast MCF7(I) (CL5001)): 8.1 and 8.0
- -Log (GI50) ([2]; Breast MCF7/ADRr (CL5002)): 5.3
- -Log (GI50) ([2]; Breast MDA-MB-231 CL5005): 6.7 and 6.9
- -Log (GI50) ([2]; Breast MDA-MB-435 (CL5011)): 6.7 and 6.9
- -Log (GI50) ([2]; Breast MDA-N CL5012): 6.8 and 7.1
- -Log (GI50) ([2]; Breast T-47D (CL5014)): 7.2 and 7.3
- -Log (GI50) ([2]; CNS SNB-19 (CL12002)): 7.4 and 7.7
- -Log (GI50) ([2]; CNS U251(I) CL12009): 7.5 and 7.8
- -Log (GI50) ([2]; Colon COLO-250 CL4010): 6.8
- -Log (GI50) ([2]; Colon HCC-2998 (CL4002)): 6.8 and 6.7
- -Log (GI50) ([2]; Colon HCT-15 CL4015): 6.2 and 5.9
- -Log (GI50) ([2]; Colon HCT-116 (CL4003)): 7.6 and 7.8
- -Log (GI50) ([2]; Colon SW-620 (CL4009)): 7.6 and 7.7
- -Log (GI50) ([2]; Leukemia CCRF-CEM(I) (CL7003)): 7.9 and 8.0
- -Log (GI50) ([2]; Leukemia HL-60(I) (CL7008)): 7.9 and 8.0
- -Log (GI50) ([2]; Leukemia MOLT-4 (CL7006)): 8.2 and 8.0
- -Log (GI50) ([2]; Leukemia SR CL7019): 8.1 and 8.0
- -Log (GI50) ([2]; Melanoma M14 (CL10014)): 6.8 and 7.1
- -Log (GI50) ([2]; Melanoma MALME-3M CL10002): 7.3 and 7.6
- -Log (GI50) ([2]; Melanoma SK-MEL-5 (CL10007)): 7.2 and 7.4
- -Log (GI50) ([2]; Melanoma SK-MEL-28 (CL10008)): 6.5 and 6.7
- -Log (GI50) ([2]; Melanoma UACC-257 (CL10021)): 6.7 and 6.9
- -Log (GI50) ([2]; NCSLC NCI-H522 CL1003): 7.3 and 7.5
- -Log (GI50) ([2]; NSCLC A549/ATCC (CL1004)): 7.3 and 7.6
- -Log (GI50) ([2]; NSCLC EKVX (CL1008)): 6.2 and 5.9
- -Log (GI50) ([2]; NSCLC HOP-62 (CL1026)): 7.6 and 7.8
- -Log (GI50) ([2]; NSCLC HOP-92 (CL1029)): 7.2 and 7.5
- -Log (GI50) ([2]; NSCLC NCI-H226 CL1013): 7.5
- -Log (GI50) ([2]; NSCLC NCI-H332M CL1017): 6.5 and 6.8
- -Log (GI50) ([2]; NSCLC NCI-H460 CL1021): 8.2 and 8.0
- -Log (GI50) ([2]; Ovarian OVCAR-3 CL6001): 6.8 and 7.0
- -Log (GI50) ([2]; Ovarian OVCAR-4 CL6002): 6.5 and 6.8
- -Log (GI50) ([2]; Renal A498 CL9013): 6.8 and 6.9
- -Log (GI50) ([2]; Renal RXF-393 CL9016): 6.8 and 7.0
- -Log (GI50) ([2]; Renal UO-31 CL9004): 6.4
